The values below come from ChEMBL document CHEMBL1201862, “PubChem BioAssay data set” (2004).

Structures are written as SMILES.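 The compound was tested at five concentrations on cells cultured in 96-well plates, with a 48-hour exposure period. GI50: concentration for 50% inhibition of growth.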 Calls of active or inactive are those of the source. Rule as the data show it: active = GI50 up to about 1.1 µM and inactive = higher.

Some test systems named below: 786-0; ACHN; COLO 205; DU-145; HCC 2998; HCT-15; IGROV-1; MCF7; MDA-MB-231; MDA-N; MOLT-4; RXF 393; SF-295; SK-MEL-28; SK-MEL-2; SK-MEL-5; SNB-75; T47D; UO-31.
Common to all, as to experiment: inhibition of tumour cell growth, NCI panel, 48 h

Turning to `NC1CC(=O)c2c(Cl)sc(Cl)c21` (stereo not given), the GI50 in the test with 786-0 is 1.41 µM (inactive); in the test on ACHN it was 2.33 µM (inactive); with COLO 205, 1.63 µM (inactive); in the test with DU-145 it was 5.55 µM (inactive); with HCC 2998, 10.1 µM (inactive); with HCT-15, 1.63 µM. The GI50 in the test on IGROV-1 is 4.12 µM (inactive); in the test on MCF7, 1.82 µM (inactive); in the test with MDA-MB-231, 2.19 µM (inactive); with MDA-N, 4.56 µM (inactive); in the test with MOLT-4, 2.18 µM (inactive); in the test with RXF 393, 1.45 µM (inactive). The GI50 with SF-295 is 14 µM (inactive); in the test with SK-MEL-28 it was 1.73 µM (inactive); with SK-MEL-2 it was 12.4 µM (inactive); with SK-MEL-5, 8.79 µM (inactive); in the test with SNB-75, 14.1 µM (inactive); in the test with T47D, 1.74 µM (inactive). Besides, in the test with UO-31, the GI50 was 9.86 µM (inactive).

For the molecule `CCOC(=O)/C(C(=O)Nc1cccc(Cl)c1)=C(/N)N1CCCC1`, the GI50 is > 100 µM (inactive) in the test with 786-0; > 100 µM (inactive) with ACHN; > 100 µM (inactive) in the test with COLO 205; > 100 µM (inactive) in the test on DU-145; > 100 µM (inactive) in the test with HCC 2998; over 100 µM in the test on HCT-15. The GI50 in the test with IGROV-1, in the test on MCF7, with MDA-MB-231, in the test with MDA-N, with MOLT-4 and in the test with RXF 393 was > 100 µM (inactive) each time. Also, the GI50 in the test with SF-295, with SK-MEL-28, in the test with SK-MEL-2, in the test on SNB-75 and with T47D was > 100 µM (inactive) in each case.

`Nc1ncc(C=O)c(NCC2(CO)CCC2)n1`: the GI50 is > 100 µM (inactive) in the test with 786-0; 28.4 µM (inactive) with COLO 205; 33 µM (inactive) in the test on DU-145; > 100 µM (inactive) in the test on HCC 2998; 71.1 µM with HCT-15; 41.5 µM (inactive) in the test with IGROV-1. The GI50 in the test on MCF7 was 23.9 µM (inactive); in the test with MDA-MB-231, 45.8 µM (inactive); in the test on MDA-N it was > 100 µM (inactive); in the test on MOLT-4, 30.5 µM (inactive); with RXF 393 it was 28.4 µM (inactive); in the test on SF-295, 36.8 µM (inactive). Further, the GI50 in the test with SK-MEL-2 was 19.3 µM (inactive); with SK-MEL-5, 19.9 µM (inactive); with SNB-75, 66.1 µM (inactive); with T47D, 14.8 µM (inactive); in the test on UO-31 it was 27.5 µM (inactive).

In the case of `c1ccc2c(c1)N=c1cc3c(cc1N2)=NC12CCCCC1CC1=C(CCCC1)N32` (stereo not given), the GI50 with 786-0 is 2.89 µM (inactive); in the test on ACHN, 2.81 µM (inactive); with COLO 205, 1.79 µM (inactive); in the test on DU-145, > 10 µM (inactive); in the test with HCC 2998, 6.76 µM (inactive); in the test on HCT-15, 5.82 µM. In addition, the GI50 was 3.4 µM (inactive) with IGROV-1; 3.3 µM (inactive) in the test with MCF7; 4.16 µM (inactive) with MDA-MB-231; 2.21 µM (inactive) in the test with MDA-N; 2.6 µM (inactive) in the test on MOLT-4; 1.39 µM (inactive) with RXF 393. The GI50 in the test on SF-295 was 9.04 µM (inactive); in the test with SK-MEL-28, 3.3 µM (inactive); in the test on SK-MEL-2, 3.44 µM (inactive); in the test on SK-MEL-5, 1.81 µM (inactive); in the test on SNB-75, 2.59 µM (inactive); in the test with T47D it was 3.94 µM (inactive).

Regarding `COc1ccc(Nc2nc3ccccc3n3cccc23)cc1OC`, the GI50 in the test on 786-0 is 15.4 µM (inactive); in the test on ACHN it was 21 µM (inactive); in the test on COLO 205, 14.4 µM (inactive); in the test with DU-145, 17.1 µM (inactive); in the test on HCC 2998 it was 14.4 µM (inactive); in the test on HCT-15 it was 13.6 µM. For the same molecule, the GI50 with IGROV-1 is 20.9 µM (inactive); in the test with MCF7, 16.1 µM (inactive); in the test with MDA-MB-231, 15.3 µM (inactive); in the test with MDA-N, 15.9 µM (inactive); in the test on MOLT-4, 9.98 µM (inactive); in the test with RXF 393 it was 12.9 µM (inactive). The GI50 in the test on SF-295 is 13.2 µM (inactive); in the test with SK-MEL-28, 15.1 µM (inactive); in the test with SK-MEL-2, 19.2 µM (inactive); in the test with SK-MEL-5, 11.9 µM (inactive); in the test with T47D, 4.06 µM (inactive); with UO-31, 19.5 µM (inactive).

Take `O=C(Cn1c(-c2ccccc2)cc2ccccc21)N1CCOCC1`: the GI50 in the test with 786-0 is 41.4 µM (inactive); in the test with ACHN, > 100 µM (inactive); in the test with COLO 205, > 100 µM (inactive); in the test on DU-145, > 100 µM (inactive); in the test with HCC 2998, > 100 µM (inactive); in the test with HCT-15, over 100 µM. For the same molecule, the GI50 in the test with IGROV-1 was > 100 µM (inactive); with MCF7, > 100 µM (inactive); with MDA-MB-231, 34.2 µM (inactive); in the test on MDA-N it was > 100 µM (inactive); in the test with MOLT-4 it was > 100 µM (inactive); in the test on RXF 393, > 100 µM (inactive). Moreover, the GI50 with SF-295, in the test on SK-MEL-28, in the test on SK-MEL-2, in the test with SK-MEL-5, in the test on T47D and in the test with UO-31 was > 100 µM (inactive) throughout.

For `CC1=NN(c2cccc(Cl)c2)C(=N/c2nc3ccccc3s2)/C1=C\c1cccs1`, the GI50 was 87.3 µM (inactive) with 786-0; 39 µM (inactive) in the test with ACHN; 44.4 µM (inactive) in the test with DU-145; 35 µM (inactive) in the test on HCC 2998; 32.8 µM with HCT-15; 36 µM (inactive) in the test with IGROV-1. Moreover, the GI50 in the test with MCF7 was 33.9 µM (inactive); in the test with MDA-MB-231, 38.9 µM (inactive); with MDA-N, 73.8 µM (inactive); with MOLT-4 it was 26.8 µM (inactive); with RXF 393, 51.3 µM (inactive); in the test with SF-295 it was 25.3 µM (inactive). Besides, the GI50 is 36.2 µM (inactive) in the test with SK-MEL-28; 25.9 µM (inactive) in the test with SK-MEL-2; 28.1 µM (inactive) with SK-MEL-5; 28 µM (inactive) in the test with SNB-75; 39.4 µM (inactive) with T47D; 60.8 µM (inactive) in the test on UO-31.

Consider `NCCCCN(CCCN)Cc1ccc2ccccc2c1`, for which the GI50 in the test with 786-0 is 34.2 µM (inactive); in the test with ACHN, 22.8 µM (inactive); in the test with COLO 205, 35.2 µM (inactive); in the test on DU-145, 66.7 µM (inactive); in the test on HCC 2998, 10.6 µM (inactive); in the test with HCT-15, over 100 µM. The GI50 in the test on IGROV-1 was 25.2 µM (inactive); with MCF7, 54.1 µM (inactive); in the test with MDA-MB-231, 32.4 µM (inactive); with MDA-N, 21.3 µM (inactive); in the test with MOLT-4, 34.8 µM (inactive); in the test with RXF 393, 63.4 µM (inactive). Also, the GI50 in the test on SF-295 is 44 µM (inactive); in the test on SK-MEL-28 it was > 100 µM (inactive); in the test on SK-MEL-5 it was 92.7 µM (inactive); in the test on SNB-75, 2.94 µM (inactive); in the test with T47D, > 100 µM (inactive); with UO-31, 13.7 µM (inactive).

`O=C1CCCCN1C(=O)c1ccc([N+](=O)[O-])cc1`: the GI50 in the test on 786-0 is > 100 µM (inactive); with ACHN, > 100 µM (inactive); in the test on DU-145 it was > 100 µM (inactive); in the test with HCC 2998 it was > 100 µM (inactive); in the test with HCT-15, over 100 µM; in the test with IGROV-1 it was > 100 µM (inactive). The GI50 is > 100 µM (inactive) in the test on MCF7; > 100 µM (inactive) in the test with MDA-MB-231; 57.7 µM (inactive) in the test with MDA-N; > 100 µM (inactive) in the test with MOLT-4; > 100 µM (inactive) with RXF 393; > 100 µM (inactive) in the test on SF-295. Moreover, the GI50 in the test with SK-MEL-28, in the test on SK-MEL-5, in the test on SNB-75, in the test on T47D and in the test on UO-31 was > 100 µM (inactive) in each case.

In the case of `COc1ncc(/C=C2\OC(=O)c3ccccc32)c(OC)n1`, the GI50 was 9.1 µM (inactive) with 786-0; 24.4 µM (inactive) in the test with ACHN; > 100 µM (inactive) in the test with COLO 205; 88.9 µM (inactive) in the test on DU-145; 76 µM (inactive) in the test with HCC 2998; 65.2 µM with HCT-15. Also, the GI50 in the test with IGROV-1 is 4.48 µM (inactive); in the test on MCF7, 25.8 µM (inactive); in the test with MDA-MB-231, > 100 µM (inactive); in the test with MDA-N, 50 µM (inactive); in the test with MOLT-4, 41 µM (inactive); in the test with RXF 393, 7 µM (inactive). For the same molecule, the GI50 in the test on SF-295 is 4.19 µM (inactive); in the test with SK-MEL-28, 56.1 µM (inactive); in the test with SK-MEL-5, 9.95 µM (inactive); in the test on SNB-75 it was 6.44 µM (inactive); with T47D, 23.6 µM (inactive); in the test with UO-31 it was 12.9 µM (inactive).

Consider `N=c1oc2ccc(Cl)cc2cc1C(=O)NC1CCCCC1`, for which the GI50 with 786-0 is 87.9 µM (inactive); with ACHN, > 100 µM (inactive); in the test on COLO 205 it was 51.6 µM (inactive); in the test with DU-145, 73.8 µM (inactive); with HCC 2998, 32.1 µM (inactive); in the test on HCT-15 it was 37.8 µM. The GI50 is 41 µM (inactive) in the test with IGROV-1; 58.6 µM (inactive) with MCF7; > 100 µM (inactive) with MDA-MB-231; 88.5 µM (inactive) in the test on MDA-N; 44.2 µM (inactive) with MOLT-4; > 100 µM (inactive) with RXF 393. Moreover, the GI50 in the test on SK-MEL-28 was 98.6 µM (inactive); in the test with SK-MEL-2, 47.6 µM (inactive); in the test with SK-MEL-5, 84.3 µM (inactive); in the test on SNB-75 it was 84.5 µM (inactive); with T47D, 66.2 µM (inactive).
